What was measured:
NF-κB reporter cells = experiment: Live cell multiplex assay in the NF-κB antagonist assay; assay type: cell-based, human
Description: A vehicle control was prepared.

human NF-κB = experiment: NF-κB antagonist reporter assay (NF-κB GRE-luciferase, HEK293 cells); assay type: cell-based;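 also: reporter cells carry native NF-κB receptor with firefly luciferase under upstream response elements, with a vehicle control included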
C. elegans strain CB5586 = experiment: C. elegans phenotypic lifespan screening (Kaplan-Meier, Log-Rank, Fisher's Exact Test); assay type: in vivo; conditions: for restricted mean lifespan, # of Days: DMSO control 13.23
Description: Dilutions of the test formulations were applied to individual populations of C. elegans and the lifespan of each population was monitored. Any changes in the lifespan of an individual population compared to a control population were recorded and correlated to the respective test formulation (N356 or N357) and the respective dilution (0.1 mg/ml, 1 mg/ml, and 10 mg/ml).
The […] and N357 formulations were each prepared as individual 100 mg/ml stock solutions in dimethyl sulfoxide (DMSO). Serial dilutions of each stock solution were then prepared at 0.1 mg/ml, 1 mg/ml, and 10 mg/ml in DMSO. Control solutions of DMSO only were also prepared. Synchronous aged adult populations of C.elegans strain CB5586 worms were prepared. The CB5586 strain comprises a pharyngeal GFP (green fluorescent protein) tag and a mutation in the bus-5 gene. The pharyngeal GFP tag allows for fluorescent images of the worm populations to be taken. The mutation in the bus-5 gene causes the loss of normal cuticle antigens that permits the cuticle of the worms to become permeable to the test formulations and allow direct uptake of the test formulations to avoid interaction of the test formulations with protective mechanisms of the gut channel. Each serial dilution of each test formulation was added to a separate population of the prepared worms. The control solutions were also added to separate populations of the prepared worms. The populations of the prepared worms were then maintained on standard nematode growth media (NGM) agar plates at 20° C. with sufficient food (Escherichia coli strain OP-50).
Each worm population was then monitored by fluorescent imaging to determine the number of living and dead worms as a function of time. The fluorescent imaging was analyzed by software that recognized and counted worms based on their fluorescent intensity compared to background fluorescence. […] The ability to distinguish between living and dead worms allowed the number of living worms and cumulative number of dead worms to be monitored against time. Worm populations from a selection of fluorescent images were manually checked to verify that the software had accurately counted the number of living and dead worms.
The counts of the living and dead worms as a function of time were then analyzed for each of the worm populations and used to prepare Kaplan-Meier survival curves and associated statistics for each of the worm populations. […] The median lifespan is shown as the length of time after the last mitotic division that 50% of the test population remains viable when compared to the control population. The maximum lifespan extension is shown as the length of time after the last mitotic division that 5% of the test population remains viable when compared to the control population.
The counts of the living and dead worms as a function of time and the Kaplan-Meier survival curves and the associated statistics were then analyzed for each of the worm populations. The analysis included determining mean and median lifespan. The analysis included a non-parametric test, the Log-Rank test, that compares two survival functions for the overall lifespan assay and provides a reliable p-value summarizing the whole experiment. The analysis also included Fisher's Exact Test that calculated the significance of survival function comparisons at multiple specific time points throughout the experiment, rather than for the overall lifespan. The results of the analysis are shown below in Tables 10-17.
Phenotypic screening was carried out as described in EXAMPLE 2 for various individual compounds of the N357 formulation. […] Alpha lipoic acid was sourced from PureBulk USA as a racemic mix of R and S stereoisomers and was assigned a sample number of N198. Hesperidin was sourced from Sigma Aldrich at ≧80% purity and was assigned a sample number of N347. […]

Compound: O=C(O[C@@H]1Cc2c(O)cc(O)cc2O[C@@H]1c1cc(O)c(O)c(O)c1)c1cc(O)c(O)c(O)c1 [EGCG, epigallocatechin gallate]
- NF-κB % Live Cell (NF-κB reporter cells; 0.033 μg/ml active ingredient): 102%
- NF-κB % Live Cell (NF-κB reporter cells; 0.098 μg/ml active ingredient): 101%
- NF-κB % Live Cell (NF-κB reporter cells; 0.30 μg/ml active ingredient): 105%
- NF-κB % Live Cell (NF-κB reporter cells; 0.89 μg/ml active ingredient): 104%
- NF-κB % Live Cell (NF-κB reporter cells; 2.67 μg/ml active ingredient): 106%
- NF-κB % Live Cell (NF-κB reporter cells; 8 μg/ml active ingredient): 107%
- NF-κB % Inhibition (human NF-κB; 0.033 μg/ml active ingredient): 10%
- NF-κB % Inhibition (human NF-κB; 0.098 μg/ml active ingredient): 18%
- NF-κB % Inhibition (human NF-κB; 0.30 μg/ml active ingredient): 0.10%
- NF-κB % Inhibition (human NF-κB; 0.89 μg/ml active ingredient): 8.4%
- NF-κB % Inhibition (human NF-κB; 2.67 μg/ml active ingredient): −15%
- NF-κB % Inhibition (human NF-κB; 8 μg/ml active ingredient): −29%

Compound: C[C@@H]1O[C@@H](OC[C@H]2O[C@@H](Oc3c(-c4ccc(O)c(O)c4)oc4cc(O)cc(O)c4c3=O)[C@H](O)[C@@H](O)[C@@H]2O)[C@H](O)[C@H](O)[C@H]1O [Rutin, quercetin-3-O-rutinoside]
- NF-κB % Live Cell (NF-κB reporter cells; 1.11 μg/ml active ingredient): 99%
- NF-κB % Live Cell (NF-κB reporter cells; 3.3 μg/ml active ingredient): 98%
- NF-κB % Live Cell (NF-κB reporter cells; 10.0 μg/ml active ingredient): 101%
- NF-κB % Live Cell (NF-κB reporter cells; 30 μg/ml active ingredient): 97%
- NF-κB % Inhibition (human NF-κB; 1.11 μg/ml active ingredient): 10%
- NF-κB % Inhibition (human NF-κB; 3.3 μg/ml active ingredient): −2.3%
- NF-κB % Inhibition (human NF-κB; 10.0 μg/ml active ingredient): −11%
- NF-κB % Inhibition (human NF-κB; 30 μg/ml active ingredient): −15%

Compound: C[C@@H]1O[C@@H](OC[C@H]2O[C@@H](Oc3c(-c4ccc(O)c(O)c4)oc4cc(O)cc(O)c4c3=O)[C@H](O)[C@@H](O)[C@@H]2O)[C@H](O)[C@H](O)[C@H]1O [N346, rutin hydrate]
- decrease of lifespan (C. elegans strain CB5586; 0.1 mg/ml): about 9%
- population age in days at 25% mortality (C. elegans strain CB5586; 0.1 mg/ml): 9 days
- population age in days at 50% mortality (C. elegans strain CB5586; 0.1 mg/ml): 11 days
- population age in days at 75% mortality (C. elegans strain CB5586; 0.1 mg/ml): 14 days
- population age in days at 90% mortality (C. elegans strain CB5586; 0.1 mg/ml): 18 days
- % Change in Mean Lifespan (C. elegans strain CB5586; 0.1 mg/ml vs. DMSO control): −8%
- restricted mean lifespan, # of Days (C. elegans strain CB5586; 0.1 mg/ml): 12.03 days
- population age in days at 25% mortality (C. elegans strain CB5586; 10 mg/ml): 11 days
- population age in days at 50% mortality (C. elegans strain CB5586; 10 mg/ml): 14 days
- population age in days at 75% mortality (C. elegans strain CB5586; 10 mg/ml): 16 days
- restricted mean lifespan, # of Days (C. elegans strain CB5586; 10 mg/ml): 13.43 days

— patent publication US20180008573A1, “METHODS AND COMPOSITIONS FOR REDUCING DAMAGE ASSOCIATED WITH OXIDATIVE PHOSPHORYLATION” (USANA Health Sciences, Inc., priority 2016, published 2018)
